Experimental data as given in US7157430B2, “(Substituted)acyl dipeptidyl inhibitors of the ICE/CED-3 family of cysteine proteases” (Idun Pharmaceuticals, Inc., priority 1998, dated 2007).
Like-named read-outs stand apart in the source and are kept apart here.

How the values were obtained:
Type in all cases: biochemical
mICE = biological target: T1, mICE (Mus musculus, UniProt P29452); assay: Fluorescence enzyme assay, IC50 determination, ICE
T1 sequence (P29452 123-296 limits assumed): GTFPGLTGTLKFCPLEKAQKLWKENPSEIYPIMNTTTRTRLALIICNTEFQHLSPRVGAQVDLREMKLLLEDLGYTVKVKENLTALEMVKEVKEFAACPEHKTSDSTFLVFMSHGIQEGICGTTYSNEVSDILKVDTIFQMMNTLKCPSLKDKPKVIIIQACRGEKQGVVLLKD
T1 sequence (P29452 315-402 limits assumed): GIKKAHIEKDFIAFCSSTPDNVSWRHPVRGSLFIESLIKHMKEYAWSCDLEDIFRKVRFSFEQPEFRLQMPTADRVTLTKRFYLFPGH
Description: (§1) Fluorescence enzyme assays detecting the activity of the compounds of Formula 1 utilizing the recombinant ICE and CPP32 enzymes are performed essentially according to Thornberry et al. (Nature, 356:768:774 (1992)) and Nicholson et al. (Nature, 376:37–43 (1995)) respectively, (herein incorporated by reference) in 96 well microtiter plates. The substrate is Acetyl-Tyr-Val-Ala-Asp-amino-4-methylcoumarin (AMC) for the ICE assay and Acetyl-Asp-Glu-Val-Asp-amino-4-methylcoumarin for the CPP32, Mch2, Mch3 and Mch5 assays. Enzyme reactions are run in ICE buffer (25 mM HEPES, 1 mM EDTA, 0.1% CHAPS, 10% sucrose, pH 7.5) containing 2 mM DTT at room temperature in duplicate.
(§2) The enzyme and the compound of Formula I to be assayed are allowed to preincubate in the microtitre plate wells for 30 minutes at room temperature prior to the addition of substrate to initiate the reaction. Fluorescent AMC product formation is monitored for one hour at room temperature by measuring the fluorescence emission at 460 nm using an excitation wavelength of 360 nm. The fluorescence change in duplicate (control) wells are averaged and the mean values are plotted as a function of inhibitor concentration to determine the inhibitor concentration producing 50% inhibition (IC50). The results of this assay are set forth below in Table 1 and in Table 3 (for Table 3, see Examples 11 through 52).
(§3) The reference compound for this assay was Cbz-ValAlaAsp-H and the values are denoted in Table 1 as “Reference”.

CPP32 = biological target: T2, CPP32 (Homo sapiens, UniProt P42574); assay: Fluorescence enzyme assay, IC50 determination, CPP32
T2 sequence (P42574 29-175 limits assumed): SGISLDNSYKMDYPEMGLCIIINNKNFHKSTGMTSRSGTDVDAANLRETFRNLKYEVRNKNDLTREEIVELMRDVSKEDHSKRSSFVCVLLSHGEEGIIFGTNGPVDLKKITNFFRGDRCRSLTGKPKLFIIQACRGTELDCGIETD
T2 sequence (P42574 176-277 limits assumed): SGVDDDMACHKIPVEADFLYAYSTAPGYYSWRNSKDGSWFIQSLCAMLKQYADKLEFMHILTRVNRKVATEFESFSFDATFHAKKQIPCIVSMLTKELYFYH
Description: as §1, §2, §3

MCH-2 = biological target: T3, MCH-2 (Homo sapiens, UniProt P55212); assay: Fluorescence enzyme assay, IC50 determination, Mch2
T3 sequence (P55212 24-179 limits assumed): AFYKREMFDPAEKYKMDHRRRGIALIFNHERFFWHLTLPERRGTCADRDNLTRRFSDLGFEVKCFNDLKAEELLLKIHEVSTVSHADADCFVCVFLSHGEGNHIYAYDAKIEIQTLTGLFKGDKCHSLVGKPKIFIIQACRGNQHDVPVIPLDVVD
T3 sequence (P55212 194-293 limits assumed): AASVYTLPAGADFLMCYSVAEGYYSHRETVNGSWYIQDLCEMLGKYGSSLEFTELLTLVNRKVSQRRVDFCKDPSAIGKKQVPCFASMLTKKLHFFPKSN
Description: as §1, §2, §3

MCH-3 = biological target: T4, MCH-3 (Homo sapiens, UniProt P55210); assay: Fluorescence enzyme assay, IC50 determination, Mch3
T4 sequence (P55210 24-198 limits assumed): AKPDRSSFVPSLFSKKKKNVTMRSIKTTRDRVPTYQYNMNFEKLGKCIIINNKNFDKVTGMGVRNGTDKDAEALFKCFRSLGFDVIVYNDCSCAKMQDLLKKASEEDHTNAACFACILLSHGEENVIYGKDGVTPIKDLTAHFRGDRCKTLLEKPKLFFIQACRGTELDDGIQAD
T4 sequence (P55210 207-303 limits assumed): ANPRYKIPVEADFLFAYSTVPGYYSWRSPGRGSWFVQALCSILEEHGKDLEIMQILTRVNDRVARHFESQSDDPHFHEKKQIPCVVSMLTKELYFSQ
Description: as §1, §2, §3

MCH-5 = MCH-5 (Homo sapiens, UniProt Q14790); assay: Fluorescence enzyme assay, IC50 determination, Mch5
Description: as §1, §2, §3

[1] = Table 3, method of Preparation 3A, read-out: mICE I50
[2] = Table 3, method of Preparation 3A, read-out: CPP32 I50
[3] = Table 3, method of Preparation 3A, read-out: MCH2 I50
[4] = Table 3, method of Preparation 3A, read-out: MCH3 I50
[5] = Table 3, method of Preparation 3A, read-out: MCH5 I50
[6] = recombinant enzyme, Ac-YVAD-AMC substrate, 30 min preincubation, room temperature, read-out: mICE IC50
[7] = recombinant enzyme, Ac-DEVD-AMC substrate, 30 min preincubation, room temperature, read-out: CPP32 IC50
[8] = Ac-DEVD-AMC substrate, 30 min preincubation, room temperature, read-out: MCH-2 IC50
[9] = Ac-DEVD-AMC substrate, 30 min preincubation, room temperature, read-out: MCH-3 IC50
[10] = Ac-DEVD-AMC substrate, 30 min preincubation, room temperature, read-out: MCH-5 IC50

Sequence of MCH-5 (Q14790 217-374 limits assumed, species assumed): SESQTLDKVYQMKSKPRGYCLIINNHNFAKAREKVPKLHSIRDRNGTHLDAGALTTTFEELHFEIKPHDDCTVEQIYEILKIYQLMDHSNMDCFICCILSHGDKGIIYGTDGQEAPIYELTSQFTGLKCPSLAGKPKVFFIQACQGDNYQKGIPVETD
Sequence of MCH-5 (Q14790 385-479 limits assumed, species assumed): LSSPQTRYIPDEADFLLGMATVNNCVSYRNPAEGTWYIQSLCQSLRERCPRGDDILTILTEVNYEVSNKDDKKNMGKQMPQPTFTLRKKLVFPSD

Compound | IC50 (mICE; [1]) [µM] | IC50 (CPP32; [2]) [µM] | IC50 (MCH-2; [3]) [µM] | IC50 (MCH-3; [4]) [µM] | IC50 (MCH-5; [5]) [µM] | IC50 (mICE; [6]) [µM] | IC50 (CPP32; [7]) [µM] | IC50 (MCH-2; [8]) [µM] | IC50 (MCH-3; [9]) [µM] | IC50 (MCH-5; [10]) [µM]
COc1ccc(OCC(=O)N[C@@H](CC(C)C)C(=O)N[C@H](C=O)CC(=O)O)c2ccccc12 [Example 27] | 0.831 | 0.263 | 22.6 | 4.08 | 1.45 |  |  |  |  | 
CC(C)[C@H](NC(=O)COc1cc2ccccc2cc1C(=O)O)C(=O)N[C@H](C=O)CC(=O)O [Example 7, (3S)-3-[N-((3′-Carboxy-2′-Naphthyloxy)Acetyl)Valinyl]Amino-4-Oxobutanoic Acid] |  |  |  |  |  | 1.89 | 0.731 | 1.9 | 17 | 0.2
CC(C)C[C@H](NC(=O)CSc1ccc2ccccc2c1)C(=O)N[C@H](C=O)CC(=O)O [Example 17] | 0.792 | 0.269 | 3.16 | 2.52 | 11 |  |  |  |  | 
CC(C)C[C@H](NC(=O)COc1ccc(Cc2ccccc2)cc1)C(=O)N[C@H](C=O)CC(=O)O [Example 43] | 1.8 | 0.346 | 18.9 | 4.41 | 4.72 |  |  |  |  | 
CC(C)C[C@H](NC(=O)C(C)Oc1ccccc1)C(=O)N[C@H](C=O)CC(=O)O (some centres unmarked) [Example 36] | 20.4 | 1.77 | > 10 | 8.27 | > 10 |  |  |  |  | 
CC(C)C[C@H](NC(=O)C(C)CC(=O)c1cccc2ccccc12)C(=O)N[C@H](C=O)CC(=O)O (some centres unmarked) [Example 20] | 4.55 | 9.88 | 24.9 | 29.8 | 3.25 |  |  |  |  | 
CC(C)C[C@H](NC(=O)COc1ccc(Cl)c2ccccc12)C(=O)N[C@H](C=O)CC(=O)O [Example 28] | 0.429 | 0.231 | 12 | 3.38 | 1.69 |  |  |  |  | 
CC(C)C[C@H](NC(=O)COc1cccc2ccccc12)C(=O)N[C@H](C=O)CC(=O)O [Example 12] | 0.597 | 0.139 | 0.846 | 1.95 | 0.821 |  |  |  |  | 
CC(C)C[C@H](NC(=O)COc1ccc2ccccc2c1)C(=O)N[C@H](C=O)CC(=O)O [Example 13] | 2.57 | 0.944 | 18.6 | 8.87 | > 10 |  |  |  |  | 
CC(C)C[C@H](NC(=O)COc1cccc2ccccc12)C(=O)N[C@H](C=O)CC(=O)O [Example 1, (3S)-3-[N-((1-Naphthyloxy)Acetyl)Leucinyl]Amino-4-Oxobutanoic Acid] |  |  |  |  |  | 0.535 | 0.141 | 0.995 | 1.56 | 0.68
